This is an account of results in US9968631B2, “Method for treatment of pulmonary fibrosis” (Galectin Therapeutics, Inc., priority 2013, dated 2018).

“Also recorded” adds a separate entry of the source.

Experiment [1] relates to bleomycin-induced pulmonary fibrosis in C57Bl/6 mice. Kind of experiment: Early treatment of pulmonary fibrosis induced by bleomycin in C57Bl/6 mice. In kind it is in vivo, mouse. The conditions noted are these: for lung weight vs vehicle-treated mice / total lung hydroxyproline content vs vehicle-treated mice: Day 21, GM-CT-01 120 mg/kg; for lung weight vs vehicle-treated mice: GR-MD-02 60 mg/kg IV days -1, 2, 6, 9, 13, 16, 20, FIG. 2; for total lung hydroxyproline content vs vehicle-treated mice / Modified Ashcroft Index score, difference vs vehicle, p (unpaired t-test): GR-MD-02 60 mg/kg IV; for lung pathology with trichrome stain (fibrosis): FIG. 7; for Modified Ashcroft Index Score compared to the vehicle group: histologic analysis; for general fibrosis score, difference vs vehicle, p (unpaired t-test) / Inflammation score, difference vs vehicle, p (unpaired t-test) / Modified Ashcroft Index score, difference vs vehicle, p (unpaired t-test): outliers removed; for general fibrosis score, difference vs vehicle, p (unpaired t-test): FIG. 5; for Inflammation score, difference vs vehicle, p (unpaired t-test): FIG. 6; for Modified Ashcroft Index score, difference vs vehicle, p (unpaired t-test): GM-CT-01 120 mg/kg, FIG. 4. The protocol: Instillation of bleomycin in the trachea induces changes similar to diffuse pulmonary fibrosis and/or fibrosing alveolitis in humans. There is an increase in deposition and net synthesis of collagen in the lung with this model.
This model can be used to evaluate therapy started in the inflammatory phase of the belomycin insult (started<7 day after bleomycin) or after the inflammatory phase and during fibrogenesis (started>7 day after bleomycin). In this example, early therapy was evaluated.
The GM (GM-CT-01) and GA-RG (GR-MD-02) compounds were evaluated as preventative therapy in this mouse model.
Pulmonary fibrosis was induced in animals using intra-tracheal instillation of bleomycin at 2.25 U/kg. Animals were treated using a GM compound (GM-CT-01) or GA-RG compound (GR-MD-02) delivered by intravenous infusion as described in Table 1.
Animals were euthanized on Day 21 and the lungs were weighed. Data shown in FIG. 2 represent group means and SEM. Statistical comparison among all groups was performed using one-way ANOVA with Newman-Keuls multiple comparison test.
After euthanasia, the total lung hydroxyproline content was measured. Data shown in FIG. 3 represent group mean and SEM and expressed as microgram of hydroxyproline per mg of lung tissue. Statistical comparison to the “vehicle+Bleomycin” group was performed using one-way ANOVA with Holm-Sidak's multiple comparison test.

For experiment [2] the test system is unchanged. Kind of experiment: Late treatment of pulmonary fibrosis induced by bleomycin in C57Bl/6 mice. In kind it is in vivo, mouse. The conditions noted are these: for lung pathology with trichrome stain (fibrosis): FIG. 14; for lung pathology with H & E (fibrosis): FIG. 15; for overall antifibrotic treatment effect: GM-CT-01 120 mg/kg, GR-MD-02 60 mg/kg IV days 10, 13, 16, 20; for Modified Ashcroft Index score vs vehicle: change did not reach significance, FIG. 11; for general fibrosis score vs vehicle: differences did not reach statistical significance, FIG. 12; for Inflammation score vs vehicle: differences not statistically significant, FIG. 13; for percent of fibrotic lung (percent of lung affected): not statistically significant. The protocol: In these experiments, treatment was initiated after the time when the inflammatory reaction is known to have subsided and the process is one of primarily fibrogenesis. Pulmonary fibrosis was induced in animals using bleomycin at 2.25 U/kg at day 0 as described above. Animals were treated using a GM compound intravenously (GM-CT-01) or GA-RG compound intravenously (GR-MD-02) as described in Table 2.
Animals were euthanized on Day 21 and the lungs were weighed. Data shown in FIG. 9 represent group means and standard error of the means.
The total lung hydroxyproline content was measured. Data shown in FIG. 10 represent group mean and expressed as microgram of hydroxyproline per mg of lung tissue.

The mark [3] stands for this setting: comparison in the experience of the laboratory.

For the substance 1,4-β-D-Galactomannan [GM-CT-01], in experiment [1], the “lung weight vs vehicle-treated mice” value is “significantly reduce lung weight; also recorded: significant reduction in mean lung weight; also recorded: markedly reduce lung weight”; the “lung pathology with trichrome stain (fibrosis)” value was “effective at reducing fibrosis”; the “Modified Ashcroft Index Score compared to the vehicle group” value is given as “significant reduction”; the “general fibrosis score, difference vs vehicle, p (unpaired t-test)” value came out at 0.0979. Also, in experiment [1], the “Inflammation score, difference vs vehicle, p (unpaired t-test)” value came out at 0.0544 and the “Modified Ashcroft Index score, difference vs vehicle, p (unpaired t-test)” value was 0.0199. Besides, in experiment [1] (FIG. 3), the “total lung hydroxyproline content vs vehicle-treated mice” value is listed as “reduce lung hydroxyproline content; also recorded: significant reduction; also recorded: markedly reduce”. In experiment [1] (setting [3]), the “results compared to pirfenadone” value is “superior to the results using pirfenadone” and the “results compared to treatment with anti-TGFbeta” value was “superior to treatment with anti-TGFbeta”. Also, the “total lung hydroxyproline content (in words)” value in experiment [2] (Day 21, GM-CT-01 120 mg/kg IV days 10, 13, 16, 20, compared with GR-MD-02, FIG. 10) is listed as “less of a decrease”. Besides, in experiment [2], the “lung pathology with trichrome stain (fibrosis)” value is given as “less effect”, the “lung pathology with H & E (fibrosis)” value was “some reduction in the fibrosis”, the “overall antifibrotic treatment effect” value is reported as “effective at reducing pulmonary fibrosis; also recorded: more modest positive treatment effect” and the “Modified Ashcroft Index score vs vehicle” value was “little change”. Besides, in experiment [2], the “general fibrosis score vs vehicle” value is listed as “reduction in the fibrosis score”, the “Inflammation score vs vehicle” value is “no change” and the “percent of fibrotic lung (percent of lung affected)” value is reported as “notably reduced”.

Turning to “galactoarabino-rhamnogalacturonate [GR-MD-02]”, in experiment [1], the “lung weight vs vehicle-treated mice” value is listed as “significantly reduce lung weight; also recorded: significant reduction in mean lung weight; also recorded: markedly reduce lung weight”; the “lung pathology with trichrome stain (fibrosis)” value is recorded as “effective at reducing fibrosis”; the “Modified Ashcroft Index Score compared to the vehicle group” value is “significant reduction”; the “general fibrosis score, difference vs vehicle, p (unpaired t-test)” value is on record as 0.0206. In experiment [1], the “Inflammation score, difference vs vehicle, p (unpaired t-test)” value amounted to 0.0508 and the “Modified Ashcroft Index score, difference vs vehicle, p (unpaired t-test)” value turned out to be 0.0112. Besides, in experiment [1] (FIG. 3), the “total lung hydroxyproline content vs vehicle-treated mice” value is given as “significant reduction; also recorded: markedly reduce”. Also, the “total lung hydroxyproline content vs vehicle-treated mice” value in experiment [1] (FIG. 3, listed as GA-MD-02) was “reduce lung hydroxyproline content”. Further, the “results compared to pirfenadone” value in experiment [1] (setting [3]) is listed as “superior to the results using pirfenadone”. The “lung weight vs control animals” value in experiment [2] (Day 21, GR-MD-02 60 mg/kg IV days 10, 13, 16, 20, FIG. 9) is “decreased lung weight of the GR-MD-02 treated group as compared to control animals, this difference did not reach statistical significance”. In experiment [2] (Day 21, GR-MD-02 60 mg/kg IV days 10, 13, 16, 20, did not reach significance, FIG. 10), the “reduction of the increase in hydroxyproline” value came out at 50%. Further, in experiment [2], the “lung pathology with trichrome stain (fibrosis)” value is listed as “effective at reducing fibrosis”, the “lung pathology with H & E (fibrosis)” value is “marked decrease in fibrous tissue”, the “overall antifibrotic treatment effect” value is given as “effective at reducing pulmonary fibrosis; also recorded: strongest anifibrotic effect; also recorded: more effective than GM-CT-01” and the “Modified Ashcroft Index score vs vehicle” value is “reduction in the Aschroft score”. Further, in experiment [2], the “general fibrosis score vs vehicle” value is recorded as “reduction in the fibrosis score”, the “Inflammation score vs vehicle” value is recorded as “reduction in inflammation score” and the “percent of fibrotic lung (percent of lung affected)” value is reported as “tended to have reduced percent of fibrotic lung”.
